Results published in US5399565A, “Pyrazolidinone CCK and gastrin antagonists and pharmaceutical formulations therof” (priority 1993, dated 1995).
pIC50: −log10 of the molar value.

Legend:
brain CCK receptor = biological target: T1, brain CCK receptor (Mus musculus, UniProt P56481); test: CCK receptor binding, mouse brain membranes (125I-CCK-8 sulfate); conditions: for pIC50: mouse brain membranes, read-out: Brain IC50; for inhibition at 10 µM / inhibition at 1 µM: read-out: Brain Percent Inhibition
T1 construct: from tissue; host or cells: forebrain membranes of male CF-1 mice
T1 sequence (P56481 1-453): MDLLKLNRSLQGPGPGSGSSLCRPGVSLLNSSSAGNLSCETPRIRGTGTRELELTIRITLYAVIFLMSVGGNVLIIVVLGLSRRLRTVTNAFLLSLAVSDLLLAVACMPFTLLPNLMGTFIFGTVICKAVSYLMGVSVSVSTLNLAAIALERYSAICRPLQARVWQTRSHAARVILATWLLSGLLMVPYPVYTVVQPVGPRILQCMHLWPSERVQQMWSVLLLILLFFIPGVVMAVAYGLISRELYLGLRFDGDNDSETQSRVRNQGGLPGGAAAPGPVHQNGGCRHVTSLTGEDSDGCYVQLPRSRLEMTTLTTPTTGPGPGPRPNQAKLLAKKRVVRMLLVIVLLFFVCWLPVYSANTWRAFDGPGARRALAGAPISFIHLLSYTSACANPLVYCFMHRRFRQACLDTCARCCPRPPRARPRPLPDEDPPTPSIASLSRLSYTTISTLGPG
Method: Brain CCK receptor binding was performed using mouse brain membranes according to the method of Chang and Lotti (Proc. Natl. Acad. Sci. 83: 4923-4926, 1986). Male CF-1 mice, 23-25 g were sacrificed by cervical dislocation, the forebrain removed and placed in ice cold 50 mM Tris buffer, pH 7.4. The tissue was homogenized in 100 volumes of the Tris buffer with a Brinkman Polytron or Tekmar Tissumizer and then centrifuged at 40,000 g for 10 min. Pellets were resuspended in Tris buffer, centrifuged as above and then resuspended in 100 volumes of assay buffer, pH 6.5 (20 mM N-2-hydroxyethyl-piperazine-N'-2-ethane sulfonic acid (HEPES), 1 mM ethylene glycol his (2-aminoethyl ether-N,N,N',N'-tetraacetic acid) (EGTA), 5 mM MgCl2, 130 mM NaCl, and 0.25 mg/ml bacitracin). The binding assay consisted of 50 μL of compound (or buffer for total binding), 50 μL of ^125 I-CCK-8 sulfate (20 pM) (Amersham IM- 159), 200 μL of assay buffer and 200 μL of homogenate (80-120 μg protein). The samples were incubated at room temperature (25°) for 2 hours, and they were then filtered through GF/B glass fiber filters (soaked in wash buffer for 2 hours before use) using a 48 well Brandel cell harvester designed for receptor binding. The filters were washed twice with 3 ml of 50 mM Tris buffer, pH 7.4, containing 0.01% BSA and then counted for radioactivity in plastic tubes with a Micromedic 10/600 automatic gamma counter.
Compounds were dissolved in dimethyl sulfoxide (DMSO) at a concentration of 10 mM and then further diluted with assay buffer. The concentration of DMSO in the incubation was 0.1% or less and had no effect on the assay at that level. IC-50 values of displacement curves were determined using 7 concentrations of compound and were calculated using the ALLFIT computer program of DeLean, Munson and Rodbard (Am. J. Physiol. 235: E97-E102, 1978). Non-specific binding was determined as the displacement of the radioligand by 100 nM CCK-8 sulfate.

[1] = biological target: T2, peripheral type CCK receptors in rat pancreas (Rattus norvegicus, UniProt P30551); test: Binding to peripheral type CCK receptors in rat pancreas (3H-L-364,718); conditions: for inhibition at 10 µM: read-out: Pancreas Percent Inhibition; for pIC50: rat pancreas
T2 construct: Pancreas was obtained from male Sprague-Dawley rats; from tissue; host or cells: pancreas membranes of male Sprague-Dawley rats
T2 sequence (P30551 1-444): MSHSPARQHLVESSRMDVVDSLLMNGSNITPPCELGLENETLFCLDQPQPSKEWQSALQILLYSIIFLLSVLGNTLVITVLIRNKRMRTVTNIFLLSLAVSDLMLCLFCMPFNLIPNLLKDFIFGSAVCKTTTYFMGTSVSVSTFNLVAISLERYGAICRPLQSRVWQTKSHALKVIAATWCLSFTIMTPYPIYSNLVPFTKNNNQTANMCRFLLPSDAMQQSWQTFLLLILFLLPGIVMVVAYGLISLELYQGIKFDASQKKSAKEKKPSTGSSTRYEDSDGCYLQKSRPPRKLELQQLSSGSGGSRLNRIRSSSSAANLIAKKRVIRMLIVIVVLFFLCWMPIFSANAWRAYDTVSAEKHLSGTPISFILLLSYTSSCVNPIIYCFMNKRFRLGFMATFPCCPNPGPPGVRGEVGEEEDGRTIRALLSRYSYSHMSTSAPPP
Method: Binding to peripheral type CCK receptors in rat pancreas was done according to the method of Chang et al. (Mol. Pharmacol. 30: 212-217, 1986) using ^3 H-L364, 718. Pancreas was obtained from male Sprague-Dawley rats, 150-200 g, after decapitation, and dissected free from adipose and connective tissue. The tissue was homogenized in 30 volumes of 50 mM Tris buffer, pH 7.4 and centrifuged at 40,000 g for 10 min. The tissue pellet was washed by resuspension and centrifugation as described above. The final pellet was suspended in 500 volumes of assay buffer (50 mM Tris buffer, pH 7.4, 5 mM MgCl2, 0.14 mg/ml bacitracin, and 5 mM dithiothreitol) to give a protein concentration of 30-60 μg/200 μl . Reagent volumes for the assay were the same as those used for CCK binding to brain membranes. Tritium labeled L-364,718 (Dupont NEN, NET-971) was used as the ligand at a concentration of 0.4-0.6 nM. The samples were incubated 1 hour at room temperature and then filtered as described for the CCK-brain receptor. Scintillation cocktail was added to the filters which were counted for radioactivity using a Micromedic Taurus automatic liquid scintillation counter.
Compound samples were prepared and IC-50 values were determined as described for the CCK-brain experiments. Non-specific binding was that amount left bound to the filters after adding 100 nM L-364,718.

pIC50 (brain CCK receptor) | inhibition at 10 µM [1] | SMILES | also measured
6.41 | 78% | O=C1NN(C(=O)NC2CCc3ccccc3C2)[C@@H](c2ccccc2)[C@@H]1c1ccccc1 (relative stereo) [Example 4, 1-[(2-[1,2,3,4-Tetrahydronaphthyl])aminocarbonyl]-4,5-diphenyl-3-pyrazolidinone] | 
 | 2% | O=C(Nc1ccc(Cl)c(C(F)(F)F)c1)N1N[C@@H](c2ccccc2)[C@H](c2ccccc2)C1=O (relative stereo) [Example 8, 2-[(4-Chloro-3-trifluoromethylphenyl)amino-carbonyl]-4,5-diphenyl-3-pyrazolidinone] | inhibition at 10 µM (brain CCK receptor): 34%
5.72 | 55% | O=C(O)CN1C(=O)[C@@H](c2ccccc2)[C@H](c2ccccc2)N1C(=O)Nc1ccc(Br)cc1 (relative stereo) [Example 12 (N--), 1-[(4-Bromophenyl)aminocarbonyl]-2-carboxymethyl-4,5-diphenyl-3-pyrazolidinone] | 
6.47 | 64% | O=C(O)COC1=NN(C(=O)Nc2ccc(Br)cc2)[C@@H](c2ccccc2)[C@@H]1c1ccccc1 (relative stereo) [Example 12 (O--), 1-[(4-bromophenyl)aminocarbonyl]-3-carboxymethoxy-4,5-diphenyl-2-pyrazoline] | 
 |  | COC1=NN(C(=O)Nc2ccc(C(F)(F)F)cc2)[C@@H](c2ccccc2)[C@@H]1c1ccccc1 (relative stereo) [Example 13, 1-[(4-Trifluoromethylphenyl)aminocarbonyl]-3-methoxy-4,5diphenyl-2-pyrazoline] | inhibition at 10 µM (brain CCK receptor): 67%
6.28 | 6% | O=C1NN(C(=O)Nc2ccc(F)cc2)[C@@H](c2ccccc2)[C@@H]1c1ccccc1 (relative stereo) [Example 17] | 
7.03 | 22% | O=C1NN(C(=O)Nc2ccc(Cl)cc2)[C@@H](c2ccccc2)[C@@H]1c1ccccc1 (relative stereo) [Example 18] | 
 | 36% | CN(C(=O)N1NC(=O)[C@@H](c2ccccc2)[C@@H]1c1ccccc1)c1ccc(Cl)cc1 (relative stereo) [Example 19] | inhibition at 10 µM (brain CCK receptor): 68%
7.24 | 77% | O=C1NN(C(=O)Nc2ccc(I)cc2)[C@@H](c2ccccc2)[C@@H]1c1ccccc1 (relative stereo) [Example 21] | 
 | 27% | CCOC(=O)c1ccc(NC(=O)N2NC(=O)[C@@H](c3ccccc3)[C@@H]2c2ccccc2)cc1 (relative stereo) [Example 22] | inhibition at 1 µM (brain CCK receptor): 42%
6.31 | 23% | CC(=O)c1ccc(NC(=O)N2NC(=O)[C@@H](c3ccccc3)[C@@H]2c2ccccc2)cc1 (relative stereo) [Example 23] | 
6.82 | 45% | O=C1NN(C(=O)Nc2ccc([N+](=O)[O-])cc2)[C@@H](c2ccccc2)[C@@H]1c1ccccc1 (relative stereo) [Example 24] | 
6.68 | 14% | Cc1ccc(NC(=O)N2NC(=O)[C@@H](c3ccccc3)[C@@H]2c2ccccc2)cc1 (relative stereo) [Example 25] | 
7.12 | 47% | CCc1ccc(NC(=O)N2NC(=O)[C@@H](c3ccccc3)[C@@H]2c2ccccc2)cc1 (relative stereo) [Example 26] | 
6.64 | 60% | CCCc1ccc(NC(=O)N2NC(=O)[C@@H](c3ccccc3)[C@@H]2c2ccccc2)cc1 (relative stereo) [Example 27] | 
6.36 | 55% | CCCCc1ccc(NC(=O)N2NC(=O)[C@@H](c3ccccc3)[C@@H]2c2ccccc2)cc1 (relative stereo) [Example 28] | 
 | 71% | O=C1NN(C(=O)Nc2ccc(C3CCCCC3)cc2)[C@@H](c2ccccc2)[C@@H]1c1ccccc1 (relative stereo) [Example 31] | inhibition at 1 µM (brain CCK receptor): 54%
 |  | CN1C(=O)[C@H](c2ccccc2)[C@@H](c2ccccc2)N1C(=O)Nc1ccc(C(F)(F)F)cc1 (relative stereo) [Example 67] | inhibition at 10 µM (brain CCK receptor): 46%
 |  | O=C(Nc1cccc(C(F)(F)F)c1)N1N[C@@H](c2ccccc2)[C@H](c2ccccc2)C1=O (relative stereo) [Example 82] | inhibition at 10 µM (brain CCK receptor): 23%
 | 58% | O=C1NN(c2nc3c(Cl)c(Cl)ccc3s2)[C@@H](c2ccccc2)[C@@H]1c1ccccc1 (relative stereo) [Example 86] | 
 | 94% | O=C1NN(C(=O)Nc2ccc3ccccc3c2)[C@@H](c2ccccc2)[C@@H]1c1ccccc1 (relative stereo) [Example 91] | 
 |  | CCCCNC(=O)N1NC(=O)[C@H](c2ccccc2)[C@H]1c1ccccc1 (relative stereo) [Example 94] | inhibition at 10 µM (brain CCK receptor): 50%
 |  | CN(Cc1ccccc1)C(=O)N1NC(=O)[C@@H](c2ccccc2)[C@@H]1c1ccccc1 (relative stereo) [Example 97] | inhibition at 10 µM (brain CCK receptor): 42%
 |  | O=C1NN(C(=S)Nc2cnc3ccccc3c2)[C@@H](c2ccccc2)[C@@H]1c1ccccc1 (relative stereo) [Example 137] | pIC50 [1]: 7.49
 |  | O=C1NN(C(=S)NCc2ccc(Cl)c(Cl)c2)[C@@H](c2ccccc2)[C@@H]1c1ccccc1 (relative stereo) [Example 138] | pIC50 [1]: 7.16
6.43 |  | O=C1NN(C(=O)Nc2ccc(Br)cc2)[C@@H](c2ccccc2)[C@@H]1c1ccccc1 (single isomer, unassigned) [Example 140, (-)-trans-1-[(4-Bromophenyl)aminocarbonyl]-4,5-diphenyl-3-pyrazolidinone] | 
 |  | O=C1NN(C(=S)Nc2ccc(Cl)c(C(F)(F)F)c2)[C@@H](c2ccccc2)[C@@H]1c1ccccc1 (single isomer, unassigned) [Example 142, (+)-trans-1-[(4-Chloro-3-trifluoromethylphenyl)-aminothiocarbonyl]-4,5-diphenyl-3-pyrazolidinone] | pIC50 [1]: 7.77
 |  | O=C1NN(C(=S)Nc2ccc(Cl)c(C(F)(F)F)c2)[C@@H](c2ccccc2)[C@@H]1c1ccccc1 (single isomer, unassigned) [Example 143, (-)-trans-1-[(4-Chloro-3-trifluoromethylphenyl)-aminothiocarbonyl]-4,5-diphenyl-3-pyrazolidinone] | pIC50 [1]: 6.09
